Assay results published in patent US10308639B2, “Phosphatidylinositol 3-kinase inhibitors” (Gilead Sciences, Inc., priority 2014, dated 2019).
Read-outs that look alike come from different tables or passages of the source.

Key:
Format in all cases: biochemical
PI3Kβ = target: T1, PI3Kβ (Homo sapiens, UniProt P42338); assay: TR-FRET enzymatic activity assay, PI3Kβ
T1 construct: made in house

PI3Kδ = target: T2, PI3Kδ (Homo sapiens, UniProt O00329); assay: TR-FRET enzymatic activity assay, PI3Kδ
T2 construct: made in house

PI3Kγ = target: T3, PI3Kγ (Homo sapiens, UniProt P48736); assay: TR-FRET enzymatic activity assay, PI3Kγ; settings: read-out: PI3Kγ IC50
T3 construct: made in house
Method: The compounds of formula (I) were characterized for their enzymatic activity against the PI3K isoforms. The activities were measured using a time-resolved fluorescence resonance energy transfer (TR-FRET) assay.

[1] = Table 2, TR-FRET, 2x Km ATP, 30 minutes at 25° C.

T1 sequence (P42338 whole entry): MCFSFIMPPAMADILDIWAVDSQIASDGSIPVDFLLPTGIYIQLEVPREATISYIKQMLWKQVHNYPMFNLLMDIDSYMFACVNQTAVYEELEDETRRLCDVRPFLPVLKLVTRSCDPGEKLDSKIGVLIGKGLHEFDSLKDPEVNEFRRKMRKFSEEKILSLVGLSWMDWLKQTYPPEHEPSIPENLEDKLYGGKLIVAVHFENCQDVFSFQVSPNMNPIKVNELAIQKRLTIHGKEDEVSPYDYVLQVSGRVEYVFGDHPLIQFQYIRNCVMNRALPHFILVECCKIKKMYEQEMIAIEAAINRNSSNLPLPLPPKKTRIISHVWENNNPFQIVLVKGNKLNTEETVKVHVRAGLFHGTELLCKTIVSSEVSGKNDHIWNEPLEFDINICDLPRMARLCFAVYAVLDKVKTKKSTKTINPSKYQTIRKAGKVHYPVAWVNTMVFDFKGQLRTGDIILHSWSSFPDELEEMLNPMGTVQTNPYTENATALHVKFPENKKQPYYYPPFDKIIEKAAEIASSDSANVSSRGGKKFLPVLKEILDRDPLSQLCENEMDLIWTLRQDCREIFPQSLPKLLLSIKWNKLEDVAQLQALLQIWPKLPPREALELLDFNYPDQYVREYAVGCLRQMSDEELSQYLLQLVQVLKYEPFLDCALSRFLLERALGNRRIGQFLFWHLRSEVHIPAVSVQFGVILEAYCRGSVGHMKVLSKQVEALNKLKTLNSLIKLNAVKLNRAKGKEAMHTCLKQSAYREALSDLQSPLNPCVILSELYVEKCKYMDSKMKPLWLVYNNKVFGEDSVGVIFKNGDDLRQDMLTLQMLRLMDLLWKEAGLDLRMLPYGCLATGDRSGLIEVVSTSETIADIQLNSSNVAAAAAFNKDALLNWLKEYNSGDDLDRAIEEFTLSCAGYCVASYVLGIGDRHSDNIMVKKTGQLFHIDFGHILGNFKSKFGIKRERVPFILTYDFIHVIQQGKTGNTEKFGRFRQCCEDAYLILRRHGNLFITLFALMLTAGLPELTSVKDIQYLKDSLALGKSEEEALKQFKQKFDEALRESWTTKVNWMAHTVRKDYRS
T1 sequence (P27986 whole entry partner): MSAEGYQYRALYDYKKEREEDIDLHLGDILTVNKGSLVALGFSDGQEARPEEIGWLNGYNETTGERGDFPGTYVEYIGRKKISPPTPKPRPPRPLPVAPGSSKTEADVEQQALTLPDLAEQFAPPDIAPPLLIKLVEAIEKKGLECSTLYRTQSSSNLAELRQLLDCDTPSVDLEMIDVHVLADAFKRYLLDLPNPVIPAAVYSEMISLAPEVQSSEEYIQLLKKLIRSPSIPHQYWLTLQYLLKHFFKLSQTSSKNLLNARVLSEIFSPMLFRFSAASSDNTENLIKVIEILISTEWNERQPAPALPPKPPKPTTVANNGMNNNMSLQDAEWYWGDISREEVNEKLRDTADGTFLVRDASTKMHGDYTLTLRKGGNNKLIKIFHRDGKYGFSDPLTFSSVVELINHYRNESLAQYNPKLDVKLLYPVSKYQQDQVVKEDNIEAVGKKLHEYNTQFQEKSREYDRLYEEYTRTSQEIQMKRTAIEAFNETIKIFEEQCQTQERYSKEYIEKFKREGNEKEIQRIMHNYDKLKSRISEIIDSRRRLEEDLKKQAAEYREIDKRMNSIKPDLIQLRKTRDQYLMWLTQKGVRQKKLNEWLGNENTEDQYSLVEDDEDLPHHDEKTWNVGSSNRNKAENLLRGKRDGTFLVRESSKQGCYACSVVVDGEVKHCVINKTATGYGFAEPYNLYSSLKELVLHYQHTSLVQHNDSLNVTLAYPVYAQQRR
T2 sequence (O00329 whole entry): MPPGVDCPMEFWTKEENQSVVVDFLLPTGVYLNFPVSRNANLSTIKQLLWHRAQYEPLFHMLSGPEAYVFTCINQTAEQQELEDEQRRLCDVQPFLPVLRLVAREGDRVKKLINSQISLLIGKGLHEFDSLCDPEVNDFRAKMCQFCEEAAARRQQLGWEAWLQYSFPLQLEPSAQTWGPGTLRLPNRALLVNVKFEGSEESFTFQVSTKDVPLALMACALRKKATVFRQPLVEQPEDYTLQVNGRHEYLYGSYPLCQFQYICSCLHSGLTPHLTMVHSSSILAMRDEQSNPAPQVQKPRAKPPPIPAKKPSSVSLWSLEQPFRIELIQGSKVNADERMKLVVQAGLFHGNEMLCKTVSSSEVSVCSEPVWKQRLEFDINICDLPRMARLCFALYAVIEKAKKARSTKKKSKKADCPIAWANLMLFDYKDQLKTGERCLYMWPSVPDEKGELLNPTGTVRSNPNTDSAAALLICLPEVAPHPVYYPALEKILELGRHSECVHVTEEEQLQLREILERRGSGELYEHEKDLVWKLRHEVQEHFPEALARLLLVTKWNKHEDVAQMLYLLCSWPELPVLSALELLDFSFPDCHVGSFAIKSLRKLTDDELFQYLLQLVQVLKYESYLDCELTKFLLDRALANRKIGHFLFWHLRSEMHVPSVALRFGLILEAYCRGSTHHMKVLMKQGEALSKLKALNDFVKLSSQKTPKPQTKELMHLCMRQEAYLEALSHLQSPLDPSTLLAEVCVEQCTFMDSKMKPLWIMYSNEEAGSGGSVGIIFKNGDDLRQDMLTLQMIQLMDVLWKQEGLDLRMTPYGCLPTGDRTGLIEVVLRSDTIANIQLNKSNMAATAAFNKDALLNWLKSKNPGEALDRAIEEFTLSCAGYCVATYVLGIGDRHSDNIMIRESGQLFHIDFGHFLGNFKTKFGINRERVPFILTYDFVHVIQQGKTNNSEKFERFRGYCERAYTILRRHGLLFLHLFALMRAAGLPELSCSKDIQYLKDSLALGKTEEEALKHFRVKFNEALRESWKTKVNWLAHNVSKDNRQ
T2 sequence (P27986 whole entry partner): as the sequence (P27986 whole entry partner) above
T3 sequence (P48736 whole entry): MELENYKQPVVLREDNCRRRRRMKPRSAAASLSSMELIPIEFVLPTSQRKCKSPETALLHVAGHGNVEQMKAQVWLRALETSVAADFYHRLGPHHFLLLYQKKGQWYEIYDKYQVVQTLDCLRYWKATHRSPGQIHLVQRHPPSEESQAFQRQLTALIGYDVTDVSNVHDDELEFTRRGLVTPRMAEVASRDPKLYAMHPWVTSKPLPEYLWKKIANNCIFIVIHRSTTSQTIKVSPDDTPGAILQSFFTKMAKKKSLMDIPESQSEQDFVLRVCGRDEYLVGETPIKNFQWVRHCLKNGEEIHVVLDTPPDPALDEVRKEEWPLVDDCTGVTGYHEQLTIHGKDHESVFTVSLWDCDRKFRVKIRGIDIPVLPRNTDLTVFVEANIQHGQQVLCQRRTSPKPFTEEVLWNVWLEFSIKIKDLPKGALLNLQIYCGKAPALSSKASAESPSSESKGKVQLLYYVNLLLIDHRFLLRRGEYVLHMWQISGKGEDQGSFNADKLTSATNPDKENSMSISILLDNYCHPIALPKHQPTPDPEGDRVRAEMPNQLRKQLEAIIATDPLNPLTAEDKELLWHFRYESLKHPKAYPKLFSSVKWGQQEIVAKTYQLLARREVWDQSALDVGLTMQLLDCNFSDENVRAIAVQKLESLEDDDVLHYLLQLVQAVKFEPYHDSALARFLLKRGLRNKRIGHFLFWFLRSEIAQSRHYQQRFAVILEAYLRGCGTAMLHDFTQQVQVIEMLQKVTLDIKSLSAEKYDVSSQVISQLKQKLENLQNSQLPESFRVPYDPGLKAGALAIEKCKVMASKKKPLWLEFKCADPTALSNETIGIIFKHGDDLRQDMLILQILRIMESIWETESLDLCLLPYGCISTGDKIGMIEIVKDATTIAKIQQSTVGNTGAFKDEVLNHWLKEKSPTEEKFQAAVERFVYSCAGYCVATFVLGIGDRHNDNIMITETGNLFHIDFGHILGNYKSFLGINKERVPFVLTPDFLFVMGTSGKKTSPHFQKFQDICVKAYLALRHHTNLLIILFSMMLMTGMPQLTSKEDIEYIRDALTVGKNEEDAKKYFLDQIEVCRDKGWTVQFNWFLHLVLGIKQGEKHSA

IC50 (PI3Kβ; [1])	IC50 (PI3Kδ; [1])	IC50 (PI3Kγ; [1])	IC50 (PI3Kγ)	Structure (SMILES)	other results
–	–	–	–	C[C@H](Nc1nc(N)nc(N)c1C#N)c1nc2cccc(Cl)c2c(=O)n1-c1ccccc1 [(S)-2,4-diamino-6-((1-(5-chloro-4-oxo-3-phenyl-3,4-dihydroquinazolin-2-yl)ethyl)amino)pyrimidine-5-carbonitrile]	PI3Kγ/PI3Kβ IC50 ratio (PI3Kβ; ratio of IC50 values, text b271): less than 1 fold
84 nM	7 nM	–	–	CC(C)Cc1cc(-n2c([C@H](C)Nc3ncnc(N)c3C#N)nc3cccc(Cl)c3c2=O)n[nH]1 [Compound 4, (S)-4-amino-6-((1-(5-chloro-3-(5-isobutyl-1H-pyrazol-3-yl)-4-oxo-3,4-dihydroquinazolin-2-yl)ethyl)amino)pyrimidine-5-carbonitrile]	–
340 nM	28 nM	–	> 10000 nM	C[C@H](Nc1ncnc(N)c1C#N)c1nc2cccc(Cl)c2c(=O)n1-c1cc(C2CC2)[nH]n1 [Compound 5, (S)-4-amino-6-((1-(5-chloro-3-(5-cyclopropyl-1H-pyrazol-3-yl)-4-oxo-3,4-dihydroquinazolin-2-yl)ethyl)amino)pyrimidine-5-carbonitrile]	–
730 nM	150 nM	–	> 10000 nM	C[C@H](Nc1ncnc(N)c1C#N)c1nc2cccc(Cl)c2c(=O)n1-c1cc(C(F)(F)F)[nH]n1 [Compound 6, (S)-4-amino-6-((1-(5-chloro-4-oxo-3-(5-(trifluoromethyl)-1H-pyrazol-3-yl)-3,4-dihydroquinazolin-2-yl)ethyl)amino)pyrimidine-5-carbonitrile]	–
71 nM	28 nM	–	> 10000 nM	Nc1nc(N)c(Cl)c(N[C@H](c2nc3cccc(F)c3c(=O)n2-c2cc[nH]n2)C2CC2)n1 [Compound 10, (S)-2-(cyclopropyl((2,6-diamino-5-chloropyrimidin-4-yl)amino)methyl)-5-fluoro-3-(1H-pyrazol-3-yl)quinazolin-4(3H)-one]	–
120 nM	44 nM	–	> 10000 nM	Nc1nc(N)c(Cl)c(N[C@H](c2nc3c(F)ccc(F)c3c(=O)n2-c2cc[nH]n2)C2CC2)n1 [Compound 11, (S)-2-(cyclopropyl((2,6-diamino-5-chloropyrimidin-4-yl)amino)methyl)-5,8-difluoro-3-(1H-pyrazol-3-yl)quinazolin-4(3H)-one]	–
220 nM	51 nM	–	> 10000 nM	Nc1nc(N)c(Cl)c(N[C@H](c2nc3c(F)cccc3c(=O)n2-c2cc[nH]n2)C2CC2)n1 [Compound 12, (S)-2-(cyclopropyl((2,6-diamino-5-chloropyrimidin-4-yl)amino)methyl)-8-fluoro-3-(1H-pyrazol-3-yl)quinazolin-4(3H)-one]	–
140 nM	39 nM	–	> 10000 nM	Nc1nc(N)c(Cl)c(N[C@H](c2nc3c(Cl)cccc3c(=O)n2-c2cc[nH]n2)C2CC2)n1 [Compound 13, (S)-8-chloro-2-(cyclopropyl((2,6-diamino-5-chloropyrimidin-4-yl)amino)methyl)-3-(1H-pyrazol-3-yl)quinazolin-4(3H)-one]	–
350 nM	51 nM	7600 nM	–	Nc1nc(N)c(Cl)c(N[C@H](c2nc3cccc(Cl)c3c(=O)n2-c2cc(Cl)[nH]n2)C2CC2)n1 [Compound 14, (S)-5-chloro-3-(5-chloro-1H-pyrazol-3-yl)-2-(cyclopropyl((2,6-diamino-5-chloropyrimidin-4-yl)amino)methyl)quinazolin-4(3H)-one]	–
1 nM	0.4 nM	43 nM	–	C[C@H](Nc1nc(N)nc(N)c1C#N)c1nc2cccc(Cl)c2c(=O)n1-c1cn[nH]c1 [Compound 15, (S)-2,4-diamino-6-((1-(5-chloro-4-oxo-3-(1H-pyrazol-4-yl)-3,4-dihydroquinazolin-2-yl)ethyl)amino)pyrimidine-5-carbonitrile]	–
2 nM	0.6 nM	67 nM	–	N#Cc1c(N)nc(N)nc1N[C@H](c1nc2cccc(Cl)c2c(=O)n1-c1cn[nH]c1)C1CC1 [Compound 17, (S)-2,4-diamino-6-(((5-chloro-4-oxo-3-(1H-pyrazol-4-yl)-3,4-dihydroquinazolin-2-yl)(cyclopropyl)methyl)amino)pyrimidine-5-carbonitrile]	–
32 nM	6 nM	1700 nM	–	Nc1nc(N)c(Cl)c(N[C@H](c2nc3cccc(Cl)c3c(=O)n2-c2cn[nH]c2)C2CC2)n1 [Compound 19, (S)-5-chloro-2-(cyclopropyl((2,6-diamino-5-chloropyrimidin-4-yl)amino)methyl)-3-(1H-pyrazol-4-yl)quinazolin-4(3H)-one]	–
9 nM	2 nM	230 nM	–	CC[C@H](Nc1nc(N)nc(N)c1C#N)c1nc2cccc(Cl)c2c(=O)n1-c1cn[nH]c1 [Compound 21, (S)-2,4-diamino-6-((1-(5-chloro-4-oxo-3-(1H-pyrazol-4-yl)-3,4-dihydroquinazolin-2-yl)propyl)amino)pyrimidine-5-carbonitrile]	–
150 nM	9 nM	740 nM	–	N#Cc1c(N)nc(N)nc1N1CCC[C@H]1c1nc2cccc(Cl)c2c(=O)n1-c1cn[nH]c1 [Compound 23, (S)-2,4-diamino-6-(2-(5-chloro-4-oxo-3-(1H-pyrazol-4-yl)-3,4-dihydroquinazolin-2-yl)pyrrolidin-1-yl)pyrimidine-5-carbonitrile]	–
22 nM	4 nM	780 nM	–	N#Cc1c(N)nc(N)nc1N1CCC[C@H]1c1nc2cccc(Cl)c2c(=O)n1-c1cc[nH]n1 [Compound 24, (S)-2,4-diamino-6-(2-(5-chloro-4-oxo-3-(1H-pyrazol-3-yl)-3,4-dihydroquinazolin-2-yl)pyrrolidin-1-yl)pyrimidine-5-carbonitrile]	–
5 nM	1 nM	130 nM	–	O=c1c2c(Cl)cccc2nc([C@@H](Nc2ncnc3scnc23)C2CC2)n1-c1cn[nH]c1 [Compound 25, (S)-5-chloro-2-(cyclopropyl(thiazolo[5,4-d]pyrimidin-7-ylamino)methyl)-3-(1H-pyrazol-4-yl)quinazolin-4(3H)-one]	–
3 nM	0.6 nM	1300 nM	–	O=c1c2c(Cl)cccc2nc([C@@H](Nc2ncnc3scnc23)C2CC2)n1-c1cc[nH]n1 [Compound 26, (S)-5-chloro-2-(cyclopropyl(thiazolo[5,4-d]pyrimidin-7-ylamino)methyl)-3-(1H-pyrazol-3-yl)quinazolin-4(3H)-one]	–
–	–	–	–	Nc1nc(N)c(Cl)c(N[C@H](c2nc3cccc(Cl)c3c(=O)n2-c2cc[nH]n2)C2CCC2)n1 [Compound 127, (S)-5-chloro-2-(cyclobutyl((2,6-diamino-5-chloropyrimidin-4-yl)amino)methyl)-3-(1H-pyrazol-3-yl)quinazolin-4(3H)-one]	IC50 (PI3Kβ; Table 2a, same assay): 49 nM; IC50 (PI3Kδ; Table 2a, same assay): 21 nM
–	–	–	–	CC(C)[C@H](Nc1nc(N)nc(N)c1Cl)c1nc2cccc(Cl)c2c(=O)n1-c1cc[nH]n1 [Compound 146, (S)-5-chloro-2-(1-((2,6-diamino-5-chloropyrimidin-4-yl)amino)-2-methylpropyl)-3-(1H-pyrazol-3-yl)quinazolin-4(3H)-one]	IC50 (PI3Kβ; Table 2a, same assay): 94 nM; IC50 (PI3Kδ; Table 2a, same assay): 25 nM
–	–	–	–	Cc1c[nH]nc1-n1c([C@@H](NC2=NC(N)=NC3=NN=C(Br)C32)C2CC2)nc2cccc(Cl)c2c1=O (stereo partly shown) [Compound 242, 2-((1 S)-((6-amino-3-bromo-3aH-pyrazolo[3,4-d]pyrimidin-4-yl)amino)(cyclopropyl)methyl)-5-chloro-3-(4-methyl-1H-pyrazol-3-yl)quinazolin-4(3H)-one]	IC50 (PI3Kβ; Table 2a, same assay): 1600 nM; IC50 (PI3Kδ; Table 2a, same assay): 220 nM
–	–	–	–	C[C@H](Nc1nc(N)nc(N)c1C#N)c1nc2cccc(Cl)c2c(=O)n1-c1ccccc1 [Compound X, (S)-2,4-diamino-6-((1-(5-chloro-4-oxo-3-phenyl-3,4-dihydroquinazolin-2-yl)ethyl)amino)pyrimidine-5-carbonitrile, reference compound]	PI3Kγ/PI3Kβ ratio (PI3Kβ; ratio of IC50 values): 0.6

Structure (SMILES)	IC50 (PI3Kβ; [1])	IC50 (PI3Kδ; [1])	IC50 (PI3Kγ; [1])	IC50 (PI3Kγ)	other results
CC[C@H](Nc1nc(N)nc(N)c1C#N)c1nc2cccc(Cl)c2c(=O)n1-c1cc[nH]n1 [Compound 1, (S)-2,4-diamino-6-((1-(5-chloro-4-oxo-3-(1H-pyrazol-3-yl)-3,4-dihydroquinazolin-2-yl)propyl)amino)pyrimidine-5-carbonitrile]	1 nM	0.6 nM	330 nM	–	–
Cc1c[nH]nc1-n1c([C@H](C)Nc2ncnc(N)c2C#N)nc2cccc(Cl)c2c1=O [Compound 3, (S)-4-amino-6-((1-(5-chloro-3-(4-methyl-1H-pyrazol-3-yl)-4-oxo-3,4-dihydroquinazolin-2-yl)ethyl)amino)pyrimidine-5-carbonitrile]	55 nM	2 nM	3000 nM	–	–
Cc1cc(-n2c([C@H](C)Nc3ncnc(N)c3C#N)nc3cccc(Cl)c3c2=O)n[nH]1 [Compound 7, (S)-4-amino-6-((1-(5-chloro-3-(5-methyl-1H-pyrazol-3-yl)-4-oxo-3,4-dihydroquinazolin-2-yl)ethyl)amino)pyrimidine-5-carbonitrile]	200 nM	43 nM	–	> 10000 nM	–
Cc1cc(-n2c([C@H](C)Nc3ncnc4scnc34)nc3cccc(Cl)c3c2=O)n[nH]1 [Compound 8, (S)-5-chloro-3-(5-methyl-1H-pyrazol-3-yl)-2-(1-(thiazolo[5,4-d]pyrimidin-7-ylamino)ethyl)quinazolin-4(3H)-one]	41 nM	11 nM	–	> 10000 nM	–
C[C@H](Nc1ncnc2occc12)c1nc2cccc(Cl)c2c(=O)n1-c1cc[nH]n1 [Compound 9, (S)-5-chloro-2-(1-(furo[2,3-d]pyrimidin-4-ylamino)ethyl)-3-(1H-pyrazol-3-yl)quinazolin-4(3H)-one]	940 nM	140 nM	–	> 10000 nM	–
